Columns and labels:
Type in all cases: cell-based, human
αSMA = assay: Western blot of HTCF protein lysate, αSMA
Procedure: (§1) Cells were lysed in lysis buffer (PhosphoSafe Extraction Reagent, Novagen) containing a protease inhibitor cocktail (P2714, Sigma-Aldrich). Crude protein lysate was quantified using a Pierce BCA protein assay kit (ThermoFisher, Mississauga, ON) and 10 ug from each sample was resolved using a Novex WedgeWell 4-20% tris-glycine gel (Invitrogen). Using an iBlot Gel Transfer Device (IB1001, Invitrogen), the separated protein was transferred to a nitrocellulose membrane (1B301001, iBlot Transfer Stack, Invitrogen) which was then blocked with 5% (w/v) bovine serum albumin (Sigma-Aldrich) in Tris buffered saline (TBST) for 1 hour at room temperature. The membranes were incubated overnight at 4° C. with primary antibody diluted in TBST containing 5% BSA (w/vol). […] Visualization was accomplished by applying WesternBright Quantum chemiluminescent reagent (Advansta, Inc.), with GAPDH used as a protein loading control. Imaging and relative densiometric quantification was accomplished using a ChemiDoc MP System (Bio-Rad Laboratories, Inc.) connected to Image Lab (Version 6, Bio-Rad Laboratories, Inc.).

collagen 1 = assay: Western blot of HTCF protein lysate, collagen 1; details: ASA 500 or 1000 μg/ml, APHS 12 μg/ml, with or without gentamicin 250 or 500 μg/ml, 48 hrs
Procedure: as §1

HTCFs = assay: Lipid Mediator Secretion Assay II (ASA or APHS with and without gentamicin, LC-MS/MS); details: for CytoM1+TGFb1 induced COX2 activity, as measured through PGE2 and kPGF1a secretion / secretion of acetylated-COX2 products, as measured through 5-HETE and 15-HETE secretion: ASA 500 or 1000 μg/ml, with or without gentamicin 250 or 500 μg/ml, 6-48 hrs; for secretion of acetylated-COX2 products, as measured through 5-HETE and 15-HETE secretion: CytoM1+TGFb1
Procedure: To this end, as before, multiple primary HTCF cell lines were cultured in DMEM w/10% FBS in 6-well culture plates, incubated at 37° C. and 5% CO2, until 90% confluent. The culture media was removed, wells washed with PBS, and then fresh DMEM w/0% FBS was added. After 24 hrs of serum starvation, fresh DMEM w/0% FBS was added, this time containing a physiologically relevant inflammation/wound healing induction mixture (1 ng/ml each of: IL-1b, TNFa, IFNγ, TGFb). After 12 hrs incubation, the induction media was removed, the wells were washed with PBS and fresh DMEM w/0% FBS was added containing one of ten experimental treatments for an incubation period of 48 hrs: 1) non-induced control (NIC: received DMEM w/0% FBS instead of the induction media), and 2) CytoM1+TGFB1 (DMEM w/0% FBS and 1 ng/ml each of: IL-1b, TNFa, IFNγ, TGFb), and 3) CytoM1/TGFB1/Gent250 (DMEM w/0% FBS, 1 ng/ml each of TGFB1, TGFB2, VEGF, CCN2 and 250 μg/ml gentamicin), and 4) CytoM1/TGFB1/Gent500 (DMEM w/0% FBS, 1 ng/ml each of TGFB1, TGFB2, VEGF, CCN2 and 500 μg/ml gentamicin), and 5) CytoM1/TGFB1/ASA500 (DMEM w/0% FBS, 1 ng/ml each of TGFB1, TGFB2, VEGF, CCN2, and 500 μg/ml ASA), and 6) CytoM1/TGFB1/ASA500/Gent250 (DMEM w/0% FBS, 1 ng/ml each of TGFB1, TGFB2, VEGF, CCN2, 500 μg/ml ASA and 250 μg/ml gentamicin), and 7) CytoM1/TGFB1/ASA1000 (DMEM w/0% FBS, 1 ng/ml each of TGFB1, TGFB2, VEGF, CCN2 and 1000 μg/ml ASA), and 8) CytoM1/TGFB1/ASA1000/Gent500 (DMEM w/0% FBS, 1 ng/ml each of TGFB1, TGFB2, VEGF, CCN2, 1000 μg/ml ASA, and 500 μg/ml gentamicin), and 9) CytoM1/TGFB1/APHS12 (DMEM w/0% FBS, 1 ng/ml each of TGFB1, TGFB2, VEGF, CCN2 and 12 μg/ml o-(acetoxyphenyl)hept-2-ynyl sulfide (APHS), and 10) CytoM1/TGFB1/APHS12/Gent250 (DMEM w/0% FBS, 1 ng/ml each of TGFB1, TGFB2, VEGF, CCN2, 12 μg/ml o-(acetoxyphenyl)hept-2-ynyl sulfide (APHS) and 250 μg/ml gentamicin). At 6, 12, 24 and 48 hrs after addition of the experimental treatments, 250 ul of supernatant was removed from each well, replaced with 250 ul of fresh DMEM w/0% FBS, and stored at −80° C. for subsequent LC-MS/MS analysis. After 48 hrs, the wells were washed with ice cold PBS three times and total cellular protein from the HTCF monolayer was collected for quantification and subsequent western blot analyses. The absolute quantity of protein within each culture well's HTCF monolayer was used as a means to standardize the relative secretion of lipid mediators by HTCFs into the culture well's supernatant.
This is a well-established method to determine the relative activity of cyclooxygenase, acetyl-COX2 and lipoxygenase biosynthetic pathways. In brief, the ratios of the integrated areas of the chromatographic peaks corresponding to each analyte and the integrated areas of the peaks corresponding to each analyte's internal standard (with known absolute quantity) are used to determine the relative quantity of each analyte in a given sample. After supernatant sample collection, 250 ul of methanol containing 100 μg of each deuterated internal standard was added. Samples were then vigorously vortexed and centrifuged at 10,000 g for 10 min before loading onto solid-phase extraction cartridges (Strata-X 33 um Polymeric Reversed Phase, 10 mg, Phenomenex 8B-S100-AAK), that were previously activated with 2 ml methanol and rinsed with 2 ml water. […] After washing with 5 ml water, extracts were eluted with 1 ml methanol. Solvent was then evaporated under vacuum in a SpeedVac centrifuge, and the extract was resuspended in 100 ul acetonitrile/water 60:40 (v/v). An aliquot of 20 ul was injected into the LC-MS/MS system for analysis. […] A Sciex Triple Quad 6500+ mass spectrometer with multiple reaction monitoring was used in negative ion mode. The chromatographic profile of the ion count for each m/z transition was monitored, and the area under the peaks (ion intensity vs elution time) was integrated using commercial software (MultiQuant, Sciex).

pSMAD2/3 = assay: Western blot of HTCF protein lysate, pSMAD2/3; details: ASA 500 or 1000 μg/ml, APHS 12 μg/ml, 48 hrs; for ratio of pSMAD2/3 to tSMAD2/3 (proportion of active to total SMAD2/3): AHGFs; for AHGF-induced levels of pSMAD2/3: with or without gentamicin 250 or 500 μg/ml
Procedure: as §1

[1] = ASA 500 or 1000 μg/ml, APHS 12 μg/ml, with or without gentamicin 250 or 500 μg/ml, 48 hrs (FIG. 17B)

Row | Compound | AHGF-induced expression of αSMA (αSMA; [1]) | AHGF-induced expression of collagen 1 (collagen 1) | net enzymatic activity, acetylated-COX2 vs COX2 production of lipid mediators (HTCFs; APHS 12 μg/ml, alone or with gentamicin 250 μg/ml, vs inf. cytokines control) | CytoM1+TGFb1 induced COX2 activity, as measured through PGE2 and kPGF1a secretion (HTCFs; APHS 12 μg/ml) | secretion of acetylated-COX2 products, as measured through 5-HETE and 15-HETE secretion (HTCFs; APHS 12 μg/ml) | ratio of pSMAD2/3 to tSMAD2/3 (proportion of active to total SMAD2/3) (pSMAD2/3) | AHGF-induced levels of pSMAD2/3 (pSMAD2/3) | AHGF-induced expression of αSMA (αSMA; ASA 100, 400, 1600 μg/ml, 48 hrs (FIG. 16)) | relative amount of COX2 products relative to inf. cytokines control (HTCFs; ASA 500 μg/ml) | balance of enzymatic activity (COX2:acetyl-COX2 ratio) (HTCFs; ASA 500 μg/ml, alone or with gentamicin 250) | relative amount of COX2 products relative to inf. cytokines control (HTCFs; ASA 1000 μg/ml) | balance of enzymatic activity (COX2:acetyl-COX2 ratio) (HTCFs; ASA 1000 μg/ml, alone or with gentamicin 500)
1 | CCCCC#CCSc1ccccc1OC(C)=O [APHS, o-(acetoxyphenyl)hept-2-ynyl sulfide] | significantly reduced | significantly reduced | significantly shift the net enzymatic activity toward net acetylated-COX2 production of lipid mediators | significantly inhibit COX2 activity | profoundly and significantly increased the secretion of acetylated-COX2 products relative to all other treatment groups | significantly reduce the proportion of active to total SMAD2/3 from AHGF-induced levels | significantly reduced |  |  |  |  | 
2 | CC(=O)Oc1ccccc1C(=O)O [ASA, acetylsalicylic acid] | significantly reduced | significantly reduced |  | significantly inhibit CytoM1+TGFb1 induced COX2 activity | either no effect or a significantly smaller effect on acetylated-COX2 products relative to the ASA/Gent experimental group | significantly reduce the proportion of active to total SMAD2/3 from AHGF-induced levels | significantly reduced | significantly impaired the AHGF-induced expression of αSMA | significantly reduce the relative amount of COX2 products relative to the inf. cytokines control group | positive values for the COX2:acetyl-COX2 ratio at all timepoints | significantly reduce the relative amount of COX2 products relative to the inf. cytokines control group | unable to significantly shift the balance of enzymatic activity toward net actyl-COX2 production relative to COX2 production

— patent publication US20210196731A1, “COMPOSITIONS AND METHODS FOR TREATING OCULAR INFLAMMATION AND OCULAR SCARRING” (priority 2018, published 2021)
